Data from patent US6306911A, “Substituted amino acids as neutral sphingomyelinase inhibitors” (Ortho-McNeil Pharmaceutical, Inc., priority 2000, dated 2001).

Tested on: neutral sphingomyelinase
Experiment: Sphingomyelinase Assay: neutral sphingomyelinase inhibition, release of 14C-phosphocholine from 14C-sphingomyelin, U937 cell lysate
Assay type: biochemical
Conditions: U937 cell lysate as enzyme, 14C-sphingomyelin substrate, pH 7.5, 1 hour at 37
Method: Neutral sphingomyelinase is an enzyme that cleaves sphingomyelin to yield ceramide and phosphocholine. […] After cleavage, an extraction separates the labeled, water-soluble phosphocholine from the intact substrate and the ceramide.
Cell Iysates are made by nitrogen cavitation of harvested cells in Buffer A (20 mM Tris, pH 7.4, 250 mM sucrose, 10 mM EGTA, 10 ug/ml leupeptin, 1 mM PMSF, […]). Lysates are flash frozen and stored at -40 C.
Substrate Preparation: N-methyl-^14 C-sphingomyelin (specific activity 50 mCi/mM) and phosphatidylinositol are evaporated under a stream of nitrogen and resuspended at an equimolar concentration of 0.1 mM in water with 0.5% Triton X-100. The solution is vortexed for 30 minutes and then sonicated for 30 minutes.
Sphingomyelinase Assay: The reaction mixture contains 25 ul 2X Tris Mg buffer (200 mM Tris-HCl, pH 7.5. 160 mM MgCl), 10 ul ^14 C-sphingomyelin substrate, 10 ul lysate (enzyme) and 5 ul test compound or vehicle for a final volume of 50 l. The assays are carried out in 1.5 ml microcentriftige tubes and are incubated for 1 hour at 37. The reaction is stopped with 30 l of water and 175 l chloroform/methanol (2:1, v:v). The tubes arc vortexed vigorously, centrifuged for 5 minutes in a microfuge at maximum speed and 50 l of the upper, aqueous phase is counted in a liquid scintillation counter. Alternatively, the assay may be set up in wells of a 96-well PCR plate in identical proporations to a total volume of 50 l. Then the plates are incubated at 37 C incubator for 1 hour. H2 O (30 l) is added to all plates and the plates are again incubated for 1 hour. Chloroform-methanol (2:1) is added in a volume of 175 l followed by vigorous mixing. The plates are sealed with adhesive covers and centrifuged at 3000 rpm for 10 minutes at 5 C. The plates are uncovered and 50 µl of upper, aqueous phase is transferred to a Flashplate™(NEN) scintillation proximity assay plate. The Flashplates are dried overnight, sealed, and counted using a Topcount scintillation counter.
Compounds that are antagonists of neutral sphingomyelinase are reported as a positive value for inhibition in Table 4.

| IC50 [µM] | SMILES |
| --- | --- |
| 89 | O=C(O)C(CO)N(CCCc1cccc2ccccc12)CCCc1cccc2ccccc12 (centres unmarked) [Compound 23] |
| 10 | C[C@@H](C(=O)O)N(CC#Cc1cccc2ccccc12)CC#Cc1cccc2ccccc12 [Compound 17, Alanine, N,N-Bis[3-(1-naphthalenyl)-2-propynyl]--] |
| 19 | COC(=O)[C@H](CO)[N+](C)(C/C=C/c1cccc2ccccc12)C/C=C/c1cccc2ccccc12 [Compound 14] |
| 28 | CC(C(=O)OC(C)(C)C)[N+](C)(CC=Cc1cccc2ccccc12)CC=Cc1cccc2ccccc12 (centres unmarked) [Compound 15] |

Same assay, conditions: highest concentration tested (100 uM); IC50 not determined; U937 cell lysate, 1 hour at 37

| SMILES | percentage of enzyme inhibition [%] |
| --- | --- |
| C[C@@H](C(=O)O)N(C/C=C/c1ccnc2ccccc12)C/C=C/c1ccnc2ccccc12 [Compound 13] | < 5 |
| O=C(O)C(CO)N(CC#Cc1cccc2ccccc12)CC#Cc1cccc2ccccc12 (centres unmarked) [Compound 18] | < 5 |
| COc1ccc(C#CCN(CC#Cc2ccc(OC)cc2)[C@@H](C)C(=O)O)cc1 [Compound 19] | 27 |
| O=C(O)C(CO)N(Cc1cccc2ccccc12)Cc1cccc2ccccc12 (centres unmarked) [Compound 21] | < 5 |
| CC(C(=O)O)N(CCc1cccc2ccccc12)CCc1cccc2ccccc12 (centres unmarked) [Compound 25] | < 5 |
| O=C(O)C(CO)N(CCc1cccc2ccccc12)CCc1cccc2ccccc12 (centres unmarked) [Compound 22] | < 5 |
| C[N+](C/C=C/c1cccc2ccccc12)(C/C=C/c1cccc2ccccc12)[C@@H](CO)C(=O)O [Compound 16] | 24 |
| CC(C(=O)O)N(Cc1cccc2ccccc12)Cc1cccc2ccccc12 (centres unmarked) [Compound 20] | < 5 |
| CC(C(=O)OC(C)(C)C)N(CC=Cc1ccnc2ccccc12)CC=Cc1ccnc2ccccc12 (centres unmarked) [Compound 24] | < 5 |
| C[C@@H](O)[C@@H](C(=O)O)N(C/C=C/c1cccc2ccccc12)C/C=C/c1cccc2ccccc12 [Compound 10] | 21 |
